≈ marks a conversion by molar mass, not a printed value.
How the values were obtained:
S. aureus (ATCC29213) [1] = experiment: Antibacterial assay; details: Staphylococcus aureus, ATCC29213, read-out: MIC S. aureus (ATCC29213)
S. aureus GyrB24 = S. aureus GyrB24 (Staphylococcus aureus, UniProt P0A0K8); experiment: Surface plasmon resonance; type: binding
S. aureus MSSA15-2 = experiment: Antibacterial spectrum; details: Staphylococcus aureus, MSSA152
S. aureus VISA5836 = experiment: Antibacterial spectrum; details: Staphylococcus aureus
E. coli (ATCC25922) = experiment: Antibacterial assay; details: for MIC: Escherichia coli, ATCC25922, read-out: MIC E. coli (ATCC25922)
E. faecium EFM19-1 = experiment: Antibacterial spectrum; details: Enterococcus faecium, EFM191
HepG2 cells = experiment: Mitochondrial toxicity; details: for mitochondrial toxicity: HepG2 cells
S. epidermidis MRSE15-1 = experiment: Antibacterial spectrum; details: Staphylococcus epidermidis, MRSE151
E. coli gyrase = E. coli gyrase (Escherichia coli, UniProt P0AES6); experiment: Gyrase inhibitory assay; type: biochemical
E. faecalis ATCC51299 = experiment: Antibacterial spectrum; details: Enterococcus faecalis
S. aureus ATCC43300 = experiment: Antibacterial spectrum; details: Staphylococcus aureus
S. epidermidis MSSE15-3 = experiment: Antibacterial spectrum; details: Staphylococcus epidermidis, MSSE153
S. aureus gyrase = S. aureus gyrase (Staphylococcus aureus, UniProt P0A0K8); experiment: Gyrase inhibitory assay; type: biochemical
[2] = system: methicillin-resistant S. aureus (ATCC43300); experiment: Mouse model of sepsis induced by MRSA; type: in vivo, ICR mice; details: 10 mg/kg ig, MRSA ATCC43300, observed 7 days
E. faecalis ATCC51575 = experiment: Antibacterial spectrum; details: Enterococcus faecalis
S. aureus (ATCC29213) [3] = experiment: Time-killing curves / killing kinetic studies; type: cell-based; details: 4, 8, and 16 × MIC
S. aureus MRSA15-1 = experiment: Antibacterial spectrum; details: Staphylococcus aureus, MRSA151
S. aureus MRSA15-2 = experiment: Antibacterial spectrum; details: Staphylococcus aureus, MRSA152
S. aureus VISA5827 = experiment: Antibacterial spectrum; details: Staphylococcus aureus
S. epidermidis MRSE15-2 = experiment: Antibacterial spectrum; details: Staphylococcus epidermidis, MRSE152
S. aureus MSSA15-1 = experiment: Antibacterial spectrum; details: Staphylococcus aureus, MSSA151
E. coli Topo IV = E. coli Topo IV (Escherichia coli, UniProt P20083); experiment: Topo IV inhibitory assay; type: biochemical
S. aureus Topo IV = S. aureus Topo IV (Staphylococcus aureus, UniProt P0C1S7); experiment: Topo IV inhibitory assay; type: biochemical
Cytotoxicity assay [4] = details: human, LO2 normal hepatocytes
hERG channel = hERG channel (Homo sapiens, UniProt Q12809); experiment: Inhibition evaluation on hERG K+ channel; type: cell-based
S. aureus (ATCC29213) [5] = experiment: Spontaneous drug resistance frequency; type: cell-based; details: S. aureus ATCC29213, 4 × MIC
[6] = Pharmacokinetics study on beagle dogs; type: in vivo
[7] = system: Salmonella typhimurium TA98 and TA100 strains; experiment: Mini-Ames test; type: cell-based
[8] = system: methicillin-resistant S. aureus (ATCC43300); experiment: Spontaneous drug resistance frequency; type: cell-based; details: MRSA ATCC43300, 4 × MIC
[9] = system: susceptible and resistant Gram-positive bacteria; experiment: Antibacterial spectrum; type: cell-based, S. aureus, S. epidermidis, E. faecalis, E. faecium; details: read-out: MIC against susceptible and resistant Gram-positive bacteria
MRSA (ATCC43300) = experiment: Neutropenic murine thigh MRSA infection model; type: in vivo, ICR mice
A. baumannii ATCC19606 = experiment: Antibacterial spectrum; details: Acinetobacter baumannii
[10] = Mouse acute toxicity test; parameters: species or system ICR mice; details: both, ICR, in vivo
Cytotoxicity assay [11] = details: human, HK2 renal tubular epithelial cells
Cytotoxicity assay [12] = details: human, HEK293 embryonic kidney cells
P. aeruginosa ATCC27853 = experiment: Antibacterial spectrum; details: Pseudomonas aeruginosa
[13] = both, beagle, dog, plasma, iv, 1 mg/kg
[14] = both, beagle, dog, plasma, po, 1 mg/kg

E. coli Topo IV, sequence (P20083 whole entry): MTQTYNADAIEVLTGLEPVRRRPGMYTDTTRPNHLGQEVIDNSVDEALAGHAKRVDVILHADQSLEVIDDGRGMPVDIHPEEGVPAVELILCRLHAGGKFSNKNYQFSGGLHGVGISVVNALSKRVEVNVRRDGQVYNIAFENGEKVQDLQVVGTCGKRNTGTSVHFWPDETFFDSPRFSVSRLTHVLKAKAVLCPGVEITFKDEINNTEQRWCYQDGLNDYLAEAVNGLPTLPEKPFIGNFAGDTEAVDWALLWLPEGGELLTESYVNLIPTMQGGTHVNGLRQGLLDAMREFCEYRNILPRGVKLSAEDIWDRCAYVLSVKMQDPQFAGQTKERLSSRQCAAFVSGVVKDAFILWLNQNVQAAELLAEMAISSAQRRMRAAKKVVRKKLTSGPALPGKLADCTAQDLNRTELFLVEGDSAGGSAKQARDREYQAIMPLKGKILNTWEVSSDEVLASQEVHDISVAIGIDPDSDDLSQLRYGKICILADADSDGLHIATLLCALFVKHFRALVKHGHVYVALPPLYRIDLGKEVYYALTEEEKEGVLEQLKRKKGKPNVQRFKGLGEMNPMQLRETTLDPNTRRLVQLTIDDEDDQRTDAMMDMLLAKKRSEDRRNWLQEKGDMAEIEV
E. coli Topo IV, sequence (P0AFI2 whole entry partner): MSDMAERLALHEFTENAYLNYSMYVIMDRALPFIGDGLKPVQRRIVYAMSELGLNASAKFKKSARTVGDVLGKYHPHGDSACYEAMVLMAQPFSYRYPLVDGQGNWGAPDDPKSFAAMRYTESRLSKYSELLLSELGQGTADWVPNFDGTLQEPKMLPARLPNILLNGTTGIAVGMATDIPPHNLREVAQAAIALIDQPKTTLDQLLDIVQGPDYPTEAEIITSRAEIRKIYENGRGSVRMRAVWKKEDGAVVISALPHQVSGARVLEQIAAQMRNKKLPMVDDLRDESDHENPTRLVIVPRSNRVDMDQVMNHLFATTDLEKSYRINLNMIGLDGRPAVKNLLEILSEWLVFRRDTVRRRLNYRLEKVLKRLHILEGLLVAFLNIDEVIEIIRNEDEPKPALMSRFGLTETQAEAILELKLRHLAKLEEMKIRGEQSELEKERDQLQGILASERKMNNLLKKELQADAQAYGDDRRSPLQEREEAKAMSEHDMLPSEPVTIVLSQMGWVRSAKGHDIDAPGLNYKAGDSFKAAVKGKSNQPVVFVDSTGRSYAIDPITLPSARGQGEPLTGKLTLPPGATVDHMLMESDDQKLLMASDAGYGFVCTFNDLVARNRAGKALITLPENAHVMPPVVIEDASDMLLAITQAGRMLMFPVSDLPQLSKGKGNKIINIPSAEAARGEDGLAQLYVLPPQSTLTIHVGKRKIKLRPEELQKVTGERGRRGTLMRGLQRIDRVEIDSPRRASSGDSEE
S. aureus gyrase, sequence (P0A0K8 whole entry): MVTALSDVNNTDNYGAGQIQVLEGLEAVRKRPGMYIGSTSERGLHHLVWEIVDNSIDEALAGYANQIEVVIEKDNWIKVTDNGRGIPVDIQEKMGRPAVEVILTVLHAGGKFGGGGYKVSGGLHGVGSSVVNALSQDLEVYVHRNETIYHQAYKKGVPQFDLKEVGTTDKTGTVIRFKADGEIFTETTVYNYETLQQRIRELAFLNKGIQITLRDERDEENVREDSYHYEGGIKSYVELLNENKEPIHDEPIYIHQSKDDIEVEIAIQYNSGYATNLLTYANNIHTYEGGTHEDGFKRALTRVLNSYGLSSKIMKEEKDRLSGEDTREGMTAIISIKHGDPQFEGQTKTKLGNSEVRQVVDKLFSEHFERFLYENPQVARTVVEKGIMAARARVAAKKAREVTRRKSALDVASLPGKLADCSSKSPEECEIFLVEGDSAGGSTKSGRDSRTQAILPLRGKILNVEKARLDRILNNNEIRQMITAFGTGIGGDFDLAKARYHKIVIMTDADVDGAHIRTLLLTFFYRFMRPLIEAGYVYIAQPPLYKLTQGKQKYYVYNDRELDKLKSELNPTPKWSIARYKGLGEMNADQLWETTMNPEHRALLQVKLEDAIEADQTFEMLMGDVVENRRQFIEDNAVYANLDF
S. aureus gyrase, sequence (P20831 whole entry partner): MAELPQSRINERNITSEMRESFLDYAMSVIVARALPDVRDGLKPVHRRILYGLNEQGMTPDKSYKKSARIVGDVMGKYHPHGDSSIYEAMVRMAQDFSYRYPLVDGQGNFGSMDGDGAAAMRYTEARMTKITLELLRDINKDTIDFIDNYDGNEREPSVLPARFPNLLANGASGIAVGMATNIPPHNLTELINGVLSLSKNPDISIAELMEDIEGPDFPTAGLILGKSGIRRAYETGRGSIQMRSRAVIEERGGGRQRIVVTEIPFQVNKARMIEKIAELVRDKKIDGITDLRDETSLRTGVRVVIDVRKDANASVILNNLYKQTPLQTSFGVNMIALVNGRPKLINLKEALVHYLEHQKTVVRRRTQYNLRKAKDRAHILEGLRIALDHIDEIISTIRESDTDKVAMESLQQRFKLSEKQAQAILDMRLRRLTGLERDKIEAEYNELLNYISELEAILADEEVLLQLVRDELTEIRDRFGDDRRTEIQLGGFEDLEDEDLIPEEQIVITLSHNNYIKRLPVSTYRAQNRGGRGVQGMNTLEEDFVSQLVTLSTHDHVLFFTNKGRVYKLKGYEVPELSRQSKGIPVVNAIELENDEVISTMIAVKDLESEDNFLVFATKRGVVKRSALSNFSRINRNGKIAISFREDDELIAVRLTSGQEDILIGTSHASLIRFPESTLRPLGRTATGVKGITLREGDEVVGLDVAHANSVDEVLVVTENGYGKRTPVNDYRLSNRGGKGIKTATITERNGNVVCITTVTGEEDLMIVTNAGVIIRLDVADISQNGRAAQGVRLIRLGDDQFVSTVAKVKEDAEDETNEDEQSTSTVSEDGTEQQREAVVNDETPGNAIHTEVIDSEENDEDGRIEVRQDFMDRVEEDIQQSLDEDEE
S. aureus Topo IV, sequence (P0C1S7 whole entry): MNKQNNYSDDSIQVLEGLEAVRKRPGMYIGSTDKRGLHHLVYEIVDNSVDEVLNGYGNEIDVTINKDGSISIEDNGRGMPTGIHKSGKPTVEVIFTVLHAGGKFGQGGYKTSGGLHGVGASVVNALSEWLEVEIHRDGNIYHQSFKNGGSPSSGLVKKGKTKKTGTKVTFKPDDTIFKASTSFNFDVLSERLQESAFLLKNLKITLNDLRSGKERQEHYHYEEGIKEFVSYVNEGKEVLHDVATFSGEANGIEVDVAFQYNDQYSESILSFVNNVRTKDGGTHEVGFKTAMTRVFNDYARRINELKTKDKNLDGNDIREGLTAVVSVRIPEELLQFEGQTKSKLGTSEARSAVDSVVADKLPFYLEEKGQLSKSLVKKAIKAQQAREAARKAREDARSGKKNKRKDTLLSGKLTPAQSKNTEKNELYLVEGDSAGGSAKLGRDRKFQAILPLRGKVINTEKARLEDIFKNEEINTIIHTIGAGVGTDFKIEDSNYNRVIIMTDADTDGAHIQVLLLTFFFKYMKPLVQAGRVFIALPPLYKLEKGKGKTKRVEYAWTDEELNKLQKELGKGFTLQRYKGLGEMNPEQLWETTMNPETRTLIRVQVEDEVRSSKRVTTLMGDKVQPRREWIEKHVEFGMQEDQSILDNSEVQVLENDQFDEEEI
S. aureus Topo IV, sequence (P0C1U9 whole entry partner): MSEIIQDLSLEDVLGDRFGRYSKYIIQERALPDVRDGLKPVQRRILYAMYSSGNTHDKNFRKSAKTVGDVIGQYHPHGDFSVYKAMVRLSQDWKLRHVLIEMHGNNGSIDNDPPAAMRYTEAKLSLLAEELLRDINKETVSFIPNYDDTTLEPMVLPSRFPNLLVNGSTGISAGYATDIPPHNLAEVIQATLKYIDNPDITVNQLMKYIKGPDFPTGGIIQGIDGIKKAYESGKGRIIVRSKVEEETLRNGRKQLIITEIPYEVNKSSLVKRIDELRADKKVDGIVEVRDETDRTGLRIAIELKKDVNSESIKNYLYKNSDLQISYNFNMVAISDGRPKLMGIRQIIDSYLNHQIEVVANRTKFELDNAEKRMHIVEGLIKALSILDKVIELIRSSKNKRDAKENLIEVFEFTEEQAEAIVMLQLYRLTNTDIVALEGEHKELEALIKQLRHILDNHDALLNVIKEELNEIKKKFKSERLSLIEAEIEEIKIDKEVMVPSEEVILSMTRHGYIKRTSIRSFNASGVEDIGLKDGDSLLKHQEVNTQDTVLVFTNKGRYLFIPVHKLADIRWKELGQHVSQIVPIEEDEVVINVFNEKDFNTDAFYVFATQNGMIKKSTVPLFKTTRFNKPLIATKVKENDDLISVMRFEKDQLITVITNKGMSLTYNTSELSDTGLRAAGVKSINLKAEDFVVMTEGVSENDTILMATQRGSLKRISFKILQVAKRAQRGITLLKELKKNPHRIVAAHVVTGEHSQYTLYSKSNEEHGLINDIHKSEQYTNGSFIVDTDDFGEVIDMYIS
S. aureus GyrB24, sequence (P0A0K8 2-220): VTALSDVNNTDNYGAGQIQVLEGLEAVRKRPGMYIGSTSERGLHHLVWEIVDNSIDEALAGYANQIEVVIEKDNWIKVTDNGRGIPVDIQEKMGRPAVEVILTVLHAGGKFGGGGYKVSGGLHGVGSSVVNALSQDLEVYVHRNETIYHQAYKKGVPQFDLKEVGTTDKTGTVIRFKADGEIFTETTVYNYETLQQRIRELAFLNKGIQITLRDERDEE

COC[C@H](C)NC(=O)c1nc(N2CC[C@@H](NC(=O)c3[nH]c(C)c(Cl)c3Cl)[C@@H](OC)C2)sc1C(=O)O [AZD5099 (6), reference compound]
MIC (S. aureus (ATCC29213) [1]): 0.015 µg/mL (≈ 0.0273 µM)
Kd (S. aureus GyrB24): 83.8 nM
MIC (S. aureus MSSA15-2): 0.03 µg/mL (≈ 0.0547 µM)
MIC (S. aureus VISA5836): 0.015 µg/mL (≈ 0.0273 µM)
MIC (E. coli (ATCC25922)): 32 µg/mL (≈ 58.3 µM)
MIC (E. faecium EFM19-1): 0.03 µg/mL (≈ 0.0547 µM)
mitochondrial toxicity (HepG2 cells; 400 μmol/L): complete damage
IC50 (HepG2 cells; Homo sapiens, HepG2, read-out: mitochondrial toxicity IC50): < 200000 nM
MIC (S. epidermidis MRSE15-1): 0.03 µg/mL (≈ 0.0547 µM)
IC50 (E. coli gyrase): 760 nM
MIC (E. faecalis ATCC51299): 0.03 µg/mL (≈ 0.0547 µM)
MIC (S. aureus ATCC43300): 0.03 µg/mL (≈ 0.0547 µM)
MIC (S. epidermidis MSSE15-3): 0.03 µg/mL (≈ 0.0547 µM)
IC50 (S. aureus gyrase): 32 ± 14 nM
protective effect / survival in mouse model of sepsis [2]: survived
MIC (E. faecalis ATCC51575): 0.03 µg/mL (≈ 0.0547 µM)
time-kill curve (S. aureus (ATCC29213) [3]): time-dependent bactericidal effect
MIC (S. aureus MRSA15-1): 0.03 µg/mL (≈ 0.0547 µM)
MIC (S. aureus MRSA15-2): 0.03 µg/mL (≈ 0.0547 µM)
MIC (S. aureus VISA5827): 0.015 µg/mL (≈ 0.0273 µM)
MIC (S. epidermidis MRSE15-2): 0.03 µg/mL (≈ 0.0547 µM)
MIC (S. aureus MSSA15-1): 0.03 µg/mL (≈ 0.0547 µM)

COC(=O)c1ccc(N2CC[C@@H](NC(=O)c3[nH]c(C)c(Cl)c3Cl)[C@@H](OC)C2)nn1 [Compound 14, Methyl-6-((3S,4R)-4-(3,4-dichloro-5-methyl-1H-pyrrole-2-carboxamido)-3-methoxypiperidin-1-yl)pyridazine-3-carboxylate]
MIC (S. aureus (ATCC29213) [1]): 0.015 µg/mL (≈ 0.0339 µM)
MIC (E. coli (ATCC25922)): 1 µg/mL (≈ 2.26 µM)
IC50 (E. coli gyrase): 3120 ± 923 nM
IC50 (S. aureus gyrase): 136 ± 20 nM
protective effect / survival in mouse model of sepsis [2]: weak protective effects
IC50 (E. coli Topo IV): > 10000 nM
IC50 (S. aureus Topo IV): 7180 ± 2810 nM

CO[C@H]1CN(c2ccc(C(=O)C(F)(F)F)nn2)CC[C@H]1NC(=O)c1[nH]c(C)c(Cl)c1Cl [Compound 22, 3,4-Dichloro-N-((3S,4R)-3-methoxy-1-(6-(2,2,2-trifluoroacetyl)pyridazin-3-yl)piperidin-4-yl)-5-methyl-1H-pyrrole-2-carboxamide]
MIC (S. aureus (ATCC29213) [1]): ≤ 0.015 µg/mL
MIC (E. coli (ATCC25922)): 1 µg/mL (≈ 2.08 µM)
IC50 (E. coli gyrase): 788 ± 289 nM
IC50 (S. aureus gyrase): 45 ± 9 nM
protective effect / survival in mouse model of sepsis [2]: weak protective effects
IC50 (E. coli Topo IV): > 10000 nM
IC50 (S. aureus Topo IV): 2130 ± 753 nM

CO[C@H]1CN(c2ccc(/C(C)=N/OC(C)(C)C(=O)O)nn2)CC[C@H]1NC(=O)c1[nH]c(C)c(Cl)c1Cl [Compound 26, 2-((((E)-1-(6-((3S,4R)-4-(3,4-Dichloro-5-methyl-1H-pyrrole-2-carboxamido)-3-methoxypiperidin-1-yl)pyridazin-3-yl)ethylidene)amino)oxy)-2-methylpropanoic acid]
MIC (S. aureus (ATCC29213) [1]): 0.125 µg/mL (≈ 0.237 µM)
MIC E. coli (ATCC25922) (E. coli (ATCC25922)): inactive
MIC (E. coli (ATCC25922)): > 128 µg/mL
IC50 (E. coli gyrase): 869 ± 313 nM
IC50 (S. aureus gyrase): 52 ± 13 nM
IC50 (E. coli Topo IV): > 10000 nM
IC50 (S. aureus Topo IV): 5710 ± 2140 nM

CO[C@H]1CN(c2ccc(C(C)(C)O)nn2)CC[C@H]1NC(=O)c1[nH]c(C)c(Cl)c1Cl [Compound 28, 3,4-Dichloro-N-((3S,4R)-1-(6-(2-hydroxypropan-2-yl)pyridazin-3-yl)-3-methoxypiperidin-4-yl)-5-methyl-1H-pyrrole-2-carboxamide]
MIC (S. aureus (ATCC29213) [1]): ≤ 0.015 µg/mL
Kd (S. aureus GyrB24): 52 nM
IC50 at 48 h (Cytotoxicity assay [4]): > 10000 nM
MIC (S. aureus MSSA15-2): 0.015 µg/mL (≈ 0.0339 µM)
IC50 (hERG channel): > 30000 nM
spontaneous resistance frequency (S. aureus (ATCC29213) [5]): less than 8 × 10^–12
Cmax [6, 13]: 5510 ng/mL
MRT inf [6, 13]: 12.3 h
MRT last [6, 13]: 9.79 h
Tmax [6, 13]: 0.873 h
clearance [6, 13]: 0.33 mL/min/kg
half-life [6, 13]: 11.3 h
Cmax [6, 14]: 3750 ng/mL
MRT inf [6, 14]: 9.85 h
MRT last [6, 14]: 9.07 h
Tmax [6, 14]: 1.75 h
bioavailability [6, 14]: 66.8%
half-life [6, 14]: 8.53 h
AUC0–48 ([6]; iv (1 mg/kg)): 56,432.101 μg·h
AUC0–∞ ([6]; iv (1 mg/kg)): 58,890.621 μg·h
AUC0–48 ([6]; po (1 mg/kg)): 38,552.203 μg·h
AUC0–∞ ([6]; po (1 mg/kg)): 39,362.651 μg·h
MIC (S. aureus VISA5836): 0.015 µg/mL (≈ 0.0339 µM)
MIC (E. coli (ATCC25922)): 1 µg/mL (≈ 2.26 µM)
MIC (E. faecium EFM19-1): 0.015 µg/mL (≈ 0.0339 µM)
mitochondrial toxicity (HepG2 cells; 50–800 μmol/L): much less toxicity
mutagenic effects in Mini-Ames test [7]: did not show any mutagenic effects
MIC (S. epidermidis MRSE15-1): 0.015 µg/mL (≈ 0.0339 µM)
IC50 (E. coli gyrase): 1480 ± 441 nM
spontaneous resistance frequency [8]: < 4.3 × 10^–12
MIC [9]: < 0.03 µg/mL
MIC (E. faecalis ATCC51299): 0.015 µg/mL (≈ 0.0339 µM)
MIC (S. aureus ATCC43300): 0.015 µg/mL (≈ 0.0339 µM)
MIC (S. epidermidis MSSE15-3): 0.015 µg/mL (≈ 0.0339 µM)
IC50 (S. aureus gyrase): 49 ± 5 nM
protective effect / survival in mouse model of sepsis [2]: survived
reduction of colony-forming unit (CFU) in the thigh (MRSA (ATCC43300); 2.5 mg/kg iv, 24 h): 3–4 log10
MIC (E. faecalis ATCC51575): 0.03 µg/mL (≈ 0.0678 µM)
time-kill curve (S. aureus (ATCC29213) [3]): time-dependent bactericidal effect
MIC (A. baumannii ATCC19606): 8 µg/mL (≈ 18.1 µM)
LD50 at 7 days ([10]; ip): > 300 mg/kg
LD50 at 7 days ([10]; iv): > 100 mg/kg
LD50 at 7 days ([10]; po): > 800 mg/kg
IC50 at 48 h (Cytotoxicity assay [11]): > 10000 nM
IC50 (E. coli Topo IV): > 10000 nM
IC50 (S. aureus Topo IV): 1510 ± 460 nM
IC50 at 48 h (Cytotoxicity assay [12]): > 10000 nM
MIC (P. aeruginosa ATCC27853): 4 µg/mL (≈ 9.04 µM)
MIC (S. aureus MRSA15-1): 0.015 µg/mL (≈ 0.0339 µM)
MIC (S. aureus MRSA15-2): 0.015 µg/mL (≈ 0.0339 µM)
MIC (S. aureus VISA5827): 0.015 µg/mL (≈ 0.0339 µM)
MIC (S. epidermidis MRSE15-2): 0.015 µg/mL (≈ 0.0339 µM)
MIC (S. aureus MSSA15-1): 0.015 µg/mL (≈ 0.0339 µM)

CN[C@H](CC(C)C)C(=O)N[C@H]1C(=O)N[C@@H](CC(N)=O)C(=O)N[C@H]2C(=O)N[C@H]3C(=O)N[C@H](C(=O)N[C@H](C(=O)O)c4cc(O)cc(O)c4-c4cc3ccc4O)[C@H](O)c3ccc(c(Cl)c3)Oc3cc2cc(c3O[C@@H]2O[C@H](CO)[C@@H](O)[C@H](O)[C@H]2O[C@H]2C[C@](C)(N)[C@H](O)[C@H](C)O2)Oc2ccc(cc2Cl)[C@H]1O [vancomycin, reference compound]
effective dose (MRSA (ATCC43300); neutropenic mouse thigh MRSA infection, iv): 110 mg/kg
